{"source": "the supplement of paper PMC10307832", "assay_in_all_cases": "relative viability (nuclei count vs DMSO), 5 days (fraction); higher = more cells survive", "key": {"NCI-H596": {"system": "NCI-H596", "outline": "(§1)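 Lung cancer cell lines, seeded in 1536-well plates, were treated the following day by pin tool with a single drug or with five library-drug doses (not always all listed) in √10 steps on top of a fixed anchor-drug dose. Cells were fixed and nuclei stained in one step after 5 days, and nuclei were counted. Relative viability is the nuclei count for treated wells divided by that for vehicle wells, reported as medians of duplicate plates.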"}, "A-427": {"system": "A-427", "outline": "as §1"}, "RERF-LC-KJ": {"system": "RERF-LC-KJ", "outline": "as §1"}, "BEN": {"system": "BEN", "outline": "as §1"}, "NCI-H2085": {"system": "NCI-H2085", "outline": "as §1"}, "LCLC-103H": {"system": "LCLC-103H", "outline": "as §1"}, "NCI-H520": {"system": "NCI-H520", "outline": "as §1"}, "NCI-H661": {"system": "NCI-H661", "outline": "as §1"}, "ABC-1": {"system": "ABC-1", "outline": "as §1"}, "NCI-H460": {"system": "NCI-H460", "outline": "as §1"}, "NCI-H1666": {"system": "NCI-H1666", "outline": "as §1"}, "HARA": {"system": "HARA", "outline": "as §1"}, "LOU-NH91": {"system": "LOU-NH91", "outline": "as §1"}, "NCI-H1651": {"system": "NCI-H1651", "outline": "as §1"}, "NCI-H838": {"system": "NCI-H838", "outline": "as §1"}, "NCI-H1734": {"system": "NCI-H1734", "outline": "as §1"}, "NCI-H1975": {"system": "NCI-H1975", "outline": "as §1"}, "CAL-12T": {"system": "CAL-12T", "outline": "as §1"}, "NCI-H647": {"system": "NCI-H647", "outline": "as §1"}, "NCI-H727": {"system": "NCI-H727", "outline": "as §1"}, "NCI-H2126": {"system": "NCI-H2126", "outline": "as §1"}}, "data": [{"smiles": "CN1CCN(CCOc2cc(OC3CCOCC3)c3c(Nc4c(Cl)ccc5c4OCO5)ncnc3c2)CC1", "note": "[Saracatinib] + CC(C)C[C@H](NC(=O)[C@H](Cc1ccccc1)NC(=O)c1cnccn1)B(O)O [Bortezomib] (partner 0.002 µM)", "values": [{"measurement": "relative viability", "setting": "NCI-H596; first compound 0.02 µM", "value": 0.98}, {"measurement": "relative viability", "setting": "NCI-H596; first compound 0.2 µM", "value": 0.999}, {"measurement": "relative viability", "setting": "NCI-H596; first compound 0.6325 µM", "value": 1.01}, {"measurement": "relative viability", "setting": "NCI-H596; first compound 2 µM", "value": 0.814}, {"measurement": "relative viability", "setting": "A-427; first compound 0.02 µM", "value": 1.03}, {"measurement": "relative viability", "setting": "A-427; first compound 0.2 µM", "value": 0.804}, {"measurement": "relative viability", "setting": "A-427; first compound 0.6325 µM", "value": 0.871}, {"measurement": "relative viability", "setting": "A-427; first compound 2 µM", "value": 0.981}, {"measurement": "relative viability", "setting": "RERF-LC-KJ; first compound 0.02 µM", "value": 1.09}, {"measurement": "relative viability", "setting": "RERF-LC-KJ; first compound 0.2 µM", "value": 1.23}, {"measurement": "relative viability", "setting": "RERF-LC-KJ; first compound 0.6325 µM", "value": 0.993}, {"measurement": "relative viability", "setting": "RERF-LC-KJ; first compound 2 µM", "value": 0.942}, {"measurement": "relative viability", "setting": "BEN; first compound 0.02 µM", "value": 0.928}, {"measurement": "relative viability", "setting": "BEN; first compound 0.2 µM", "value": 0.695}, {"measurement": "relative viability", "setting": "BEN; first compound 0.6325 µM", "value": 0.889}, {"measurement": "relative viability", "setting": "BEN; first compound 2 µM", "value": 0.573}, {"measurement": "relative viability", "setting": "NCI-H2085; first compound 0.02 µM", "value": 1.07}, {"measurement": "relative viability", "setting": "NCI-H2085; first compound 0.2 µM", "value": 0.91}, {"measurement": "relative viability", "setting": "NCI-H2085; first compound 0.6325 µM", "value": 1.13}, {"measurement": "relative viability", "setting": "NCI-H2085; first compound 2 µM", "value": 1.11}, {"measurement": "relative viability", "setting": "LCLC-103H; first compound 0.02 µM", "value": 1.21}, {"measurement": "relative viability", "setting": "LCLC-103H; first compound 0.2 µM", "value": 0.963}, {"measurement": "relative viability", "setting": "LCLC-103H; first compound 0.6325 µM", "value": 1.09}, {"measurement": "relative viability", "setting": "LCLC-103H; first compound 2 µM", "value": 0.941}, {"measurement": "relative viability", "setting": "NCI-H520; first compound 0.02 µM", "value": 0.663}, {"measurement": "relative viability", "setting": "NCI-H520; first compound 0.2 µM", "value": 0.431}, {"measurement": "relative viability", "setting": "NCI-H520; first compound 0.6325 µM", "value": 0.289}, {"measurement": "relative viability", "setting": "NCI-H520; first compound 2 µM", "value": 0.174}, {"measurement": "relative viability", "setting": "NCI-H661; first compound 0.02 µM", "value": 0.831}, {"measurement": "relative viability", "setting": "NCI-H661; first compound 0.2 µM", "value": 0.849}, {"measurement": "relative viability", "setting": "NCI-H661; first compound 0.6325 µM", "value": 0.837}, {"measurement": "relative viability", "setting": "NCI-H661; first compound 2 µM", "value": 0.373}, {"measurement": "relative viability", "setting": "ABC-1; first compound 0.02 µM", "value": 0.275}, {"measurement": "relative viability", "setting": "ABC-1; first compound 0.2 µM", "value": 0.282}, {"measurement": "relative viability", "setting": "ABC-1; first compound 0.6325 µM", "value": 0.312}, {"measurement": "relative viability", "setting": "ABC-1; first compound 2 µM", "value": 0.317}, {"measurement": "relative viability", "setting": "NCI-H460; first compound 0.02 µM", "value": 1.05}, {"measurement": "relative viability", "setting": "NCI-H460; first compound 0.2 µM", "value": 0.51}, {"measurement": "relative viability", "setting": "NCI-H460; first compound 0.6325 µM", "value": 1.12}, {"measurement": "relative viability", "setting": "NCI-H460; first compound 2 µM", "value": 1.03}, {"measurement": "relative viability", "setting": "NCI-H1666; first compound 0.02 µM", "value": 0.898}, {"measurement": "relative viability", "setting": "NCI-H1666; first compound 0.2 µM", "value": 0.978}, {"measurement": "relative viability", "setting": "NCI-H1666; first compound 0.6325 µM", "value": 1.07}, {"measurement": "relative viability", "setting": "NCI-H1666; first compound 2 µM", "value": 1.06}, {"measurement": "relative viability", "setting": "HARA; first compound 0.02 µM", "value": 1.12}, {"measurement": "relative viability", "setting": "HARA; first compound 0.6325 µM", "value": 1.08}, {"measurement": "relative viability", "setting": "HARA; first compound 2 µM", "value": 0.602}, {"measurement": "relative viability", "setting": "LOU-NH91; first compound 0.02 µM", "value": 0.538}, {"measurement": "relative viability", "setting": "LOU-NH91; first compound 0.2 µM", "value": 0.457}, {"measurement": "relative viability", "setting": "LOU-NH91; first compound 0.6325 µM", "value": 0.521}, {"measurement": "relative viability", "setting": "LOU-NH91; first compound 2 µM", "value": 0.533}, {"measurement": "relative viability", "setting": "NCI-H1651; first compound 0.02 µM", "value": 0.962}, {"measurement": "relative viability", "setting": "NCI-H1651; first compound 0.2 µM", "value": 0.775}, {"measurement": "relative viability", "setting": "NCI-H1651; first compound 0.6325 µM", "value": 1}, {"measurement": "relative viability", "setting": "NCI-H1651; first compound 2 µM", "value": 0.844}, {"measurement": "relative viability", "setting": "NCI-H838; first compound 0.02 µM", "value": 0.78}, {"measurement": "relative viability", "setting": "NCI-H838; first compound 0.2 µM", "value": 0.702}, {"measurement": "relative viability", "setting": "NCI-H838; first compound 0.6325 µM", "value": 0.482}, {"measurement": "relative viability", "setting": "NCI-H838; first compound 2 µM", "value": 0.431}, {"measurement": "relative viability", "setting": "NCI-H1734; first compound 0.02 µM", "value": 1.08}, {"measurement": "relative viability", "setting": "NCI-H1734; first compound 0.6325 µM", "value": 0.891}, {"measurement": "relative viability", "setting": "NCI-H1734; first compound 2 µM", "value": 0.842}, {"measurement": "relative viability", "setting": "NCI-H1975; first compound 0.02 µM", "value": 0.356}, {"measurement": "relative viability", "setting": "NCI-H1975; first compound 0.6325 µM", "value": 0.443}, {"measurement": "relative viability", "setting": "NCI-H1975; first compound 2 µM", "value": 0.331}, {"measurement": "relative viability", "setting": "CAL-12T; first compound 0.02 µM", "value": 0.944}, {"measurement": "relative viability", "setting": "CAL-12T; first compound 0.2 µM", "value": 0.949}, {"measurement": "relative viability", "setting": "CAL-12T; first compound 0.6325 µM", "value": 1.24}, {"measurement": "relative viability", "setting": "CAL-12T; first compound 2 µM", "value": 0.639}, {"measurement": "relative viability", "setting": "NCI-H647; first compound 0.02 µM", "value": 0.993}, {"measurement": "relative viability", "setting": "NCI-H647; first compound 0.2 µM", "value": 0.677}, {"measurement": "relative viability", "setting": "NCI-H647; first compound 0.6325 µM", "value": 0.757}, {"measurement": "relative viability", "setting": "NCI-H647; first compound 2 µM", "value": 0.641}, {"measurement": "relative viability", "setting": "NCI-H727; first compound 0.02 µM", "value": 0.923}, {"measurement": "relative viability", "setting": "NCI-H727; first compound 0.2 µM", "value": 0.535}, {"measurement": "relative viability", "setting": "NCI-H727; first compound 0.6325 µM", "value": 1.09}, {"measurement": "relative viability", "setting": "NCI-H727; first compound 2 µM", "value": 0.506}, {"measurement": "relative viability", "setting": "NCI-H2126; first compound 0.02 µM", "value": 1.09}, {"measurement": "relative viability", "setting": "NCI-H2126; first compound 0.2 µM", "value": 1.02}, {"measurement": "relative viability", "setting": "NCI-H2126; first compound 0.6325 µM", "value": 1.11}, {"measurement": "relative viability", "setting": "NCI-H2126; first compound 2 µM", "value": 0.996}]}]}
